In the supplement of paper PMC10307832 one finds relative viability data, which are given here for eight cell lines.

Holding throughout (assay): relative viability (nuclei count vs DMSO), 5 days (fraction); higher = more cells survive
Compound in test [1]: Cc1nc(Nc2ncc(C(=O)Nc3c(C)cccc3Cl)s2)cc(N2CCN(CCO)CC2)n1 [Dasatinib] + Nc1ncn([C@H]2C[C@H](O)[C@@H](CO)O2)c(=O)n1 [Decitabine] (partner 2 µM)
Summed up:
(§1)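 For relative viability, nuclei counts in treated wells were divided by those in vehicle wells. Lung cancer cell lines had been pin-tool dosed in 1536-well plates the day after seeding and cultured for 5 days, then fixed and stained in one step (final 0.05% Triton X-100, 1% formaldehyde, 1 ug/ml Hoechst) and imaged at 4×. Doses were one drug alone or a fixed anchor-drug dose plus five library-drug doses (not always all listed) in √10 steps, and values are duplicate-plate medians.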

Compound in test [2]: C1CC1C(=O)NC2=NNC3=C2C=CC(=C3)C4=CC(=CC=C4)C(=O)NC5CC5 [XMD13-2] + N=C(N)NC(=N)NCCc1ccccc1 [Phenformin] (partner 250 µM)
Summed up:
as §1

Compound in test [3]: C1CC1C(=O)NC2=NNC3=C2C=CC(=C3)C4=CC(=CC=C4)C(=O)NC5CC5 [XMD13-2] + CC(=O)c1c(C)c2cnc(Nc3ccc(N4CCNCC4)cn3)nc2n(C2CCCC2)c1=O [Palbociclib] (partner 0.5 µM)
Put shortly:
as §1

Compound in test [4]: Cc1ccc(C(=O)Nc2cccc(C(F)(F)F)c2)cc1Nc1cncc(C(N)=O)c1 [ALW-II-49-7] + CC(=O)c1c(C)c2cnc(Nc3ccc(N4CCNCC4)cn3)nc2n(C2CCCC2)c1=O [Palbociclib] (partner 0.5 µM)
Put shortly: as §1

As to 201T, the relative viability in test [1] (first compound 0.005 µM) is 0.834; in test [1] (first compound 0.01581 µM), 0.795; in test [1] (first compound 0.05 µM) it was 0.802; in test [1] (first compound 0.1581 µM), 0.646; in test [1] (first compound 0.5 µM) it was 0.416; in test [2] (first compound 0.05 µM), 0.462. In addition, the relative viability in test [2] (first compound 0.1581 µM) is 0.45; in test [2] (first compound 0.5 µM) it was 0.397; in test [2] (first compound 1.581 µM), 0.467; in test [2] (first compound 5 µM), 0.464; in test [3] (first compound 0.05 µM) it was 0.356; in test [3] (first compound 0.1581 µM), 0.377. Besides, the relative viability in test [3] (first compound 0.5 µM) worked out at 0.539; in test [3] (first compound 1.581 µM), 0.357; in test [3] (first compound 5 µM), 0.34; in test [4] (first compound 0.08 µM), 0.362; in test [4] (first compound 0.253 µM), 0.361; in test [4] (first compound 0.8 µM) it was 0.376. Also, the relative viability in test [4] (first compound 2.53 µM) was 0.329; in test [4] (first compound 8 µM), 0.347.

As to A549, the relative viability in test [1] (first compound 0.005 µM) worked out at 0.222; in test [1] (first compound 0.01581 µM), 0.236; in test [1] (first compound 0.05 µM) it was 0.307; in test [1] (first compound 0.1581 µM), 0.173; in test [1] (first compound 0.5 µM), 0.178; in test [2] (first compound 0.05 µM), 0.547. For the same cell line, the relative viability in test [2] (first compound 0.1581 µM) stood at 0.152; in test [2] (first compound 0.5 µM), 0.153; in test [2] (first compound 1.581 µM) it was 0.12; in test [2] (first compound 5 µM), 0.232.

Consider A-427, for which the relative viability in test [1] (first compound 0.005 µM) was 0.616; in test [1] (first compound 0.01581 µM), 0.513; in test [1] (first compound 0.05 µM), 0.543; in test [1] (first compound 0.1581 µM), 0.491; in test [1] (first compound 0.5 µM), 0.493; in test [2] (first compound 0.05 µM), 0.37. Also, the relative viability was determined as 0.252 in test [2] (first compound 0.1581 µM); 0.334 in test [2] (first compound 0.5 µM); 0.263 in test [2] (first compound 1.581 µM); 0.282 in test [2] (first compound 5 µM); 0.568 in test [3] (first compound 0.05 µM); 0.499 in test [3] (first compound 0.1581 µM). Further, the relative viability in test [3] (first compound 0.5 µM) came to 0.573; in test [3] (first compound 5 µM), 0.473; in test [4] (first compound 0.08 µM) it was 0.491; in test [4] (first compound 0.253 µM), 0.523; in test [4] (first compound 0.8 µM) it was 0.556; in test [4] (first compound 2.53 µM), 0.561. Also, the relative viability in test [4] (first compound 8 µM) is 0.51.

Consider ABC-1, for which the relative viability in test [1] (first compound 0.005 µM) stood at 1.31; in test [1] (first compound 0.01581 µM), 0.953; in test [1] (first compound 0.05 µM), 1.18; in test [1] (first compound 0.1581 µM), 1.06; in test [1] (first compound 0.5 µM) it was 0.975; in test [2] (first compound 0.05 µM), 0.219. Moreover, the relative viability was determined as 0.24 in test [2] (first compound 0.1581 µM); 0.242 in test [2] (first compound 0.5 µM); 0.267 in test [2] (first compound 1.581 µM); 0.26 in test [2] (first compound 5 µM); 0.72 in test [3] (first compound 0.05 µM); 0.606 in test [3] (first compound 0.1581 µM). Moreover, the relative viability was found to be 0.78 in test [3] (first compound 0.5 µM); 0.556 in test [3] (first compound 5 µM); 0.48 in test [4] (first compound 0.08 µM); 0.647 in test [4] (first compound 0.253 µM); 0.59 in test [4] (first compound 0.8 µM); 0.665 in test [4] (first compound 2.53 µM). The relative viability in test [4] (first compound 8 µM) was determined as 0.711.

Turning to BEN, the relative viability was found to be 0.667 in test [1] (first compound 0.005 µM); 0.598 in test [1] (first compound 0.01581 µM); 0.567 in test [1] (first compound 0.05 µM); 0.442 in test [1] (first compound 0.1581 µM); 0.387 in test [1] (first compound 0.5 µM); 0.28 in test [2] (first compound 0.05 µM). In addition, the relative viability is 0.263 in test [2] (first compound 0.1581 µM); 0.254 in test [2] (first compound 0.5 µM); 0.26 in test [2] (first compound 1.581 µM); 0.311 in test [2] (first compound 5 µM); 0.462 in test [3] (first compound 0.05 µM); 0.508 in test [3] (first compound 0.1581 µM). In addition, the relative viability in test [3] (first compound 0.5 µM) stood at 0.492; in test [3] (first compound 1.581 µM), 0.489; in test [3] (first compound 5 µM), 0.468; in test [4] (first compound 0.08 µM), 0.468; in test [4] (first compound 0.253 µM) it was 0.452; in test [4] (first compound 0.8 µM) it was 0.482. Further, the relative viability in test [4] (first compound 2.53 µM) was 0.439; in test [4] (first compound 8 µM) it was 0.481.

CAL-12T: the relative viability in test [2] (first compound 0.05 µM) turned out to be 0.575; in test [2] (first compound 0.1581 µM), 0.538; in test [2] (first compound 0.5 µM), 0.61; in test [2] (first compound 1.581 µM), 0.538; in test [2] (first compound 5 µM), 0.665; in test [3] (first compound 0.05 µM) it was 0.567. The relative viability in test [3] (first compound 0.1581 µM) was found to be 0.418; in test [3] (first compound 0.5 µM), 0.478; in test [3] (first compound 1.581 µM), 0.504; in test [3] (first compound 5 µM), 0.371; in test [4] (first compound 0.08 µM), 0.381; in test [4] (first compound 0.253 µM) it was 0.423. Further, the relative viability worked out at 0.46 in test [4] (first compound 0.8 µM), 0.411 in test [4] (first compound 2.53 µM) and 0.365 in test [4] (first compound 8 µM).

Turning to COR-L23, the relative viability in test [1] (first compound 0.005 µM) came to 0.428; in test [1] (first compound 0.01581 µM), 0.42; in test [1] (first compound 0.05 µM), 0.386; in test [1] (first compound 0.1581 µM) it was 0.298; in test [1] (first compound 0.5 µM), 0.307; in test [2] (first compound 0.05 µM) it was 0.479. In addition, the relative viability in test [2] (first compound 0.1581 µM) turned out to be 0.437; in test [2] (first compound 0.5 µM), 0.472; in test [2] (first compound 1.581 µM), 0.409; in test [2] (first compound 5 µM) it was 0.398; in test [3] (first compound 0.05 µM), 0.248; in test [3] (first compound 0.1581 µM), 0.298. The relative viability in test [3] (first compound 0.5 µM) amounted to 0.295; in test [3] (first compound 1.581 µM), 0.294; in test [3] (first compound 5 µM), 0.365; in test [4] (first compound 0.08 µM), 0.276; in test [4] (first compound 0.253 µM), 0.271; in test [4] (first compound 0.8 µM), 0.245. In addition, the relative viability in test [4] (first compound 2.53 µM) turned out to be 0.274; in test [4] (first compound 8 µM), 0.259.

In the case of COR-L 105, the relative viability in test [1] (first compound 0.005 µM) came out at 0.599; in test [1] (first compound 0.01581 µM) it was 0.604; in test [1] (first compound 0.05 µM), 0.478; in test [1] (first compound 0.1581 µM) it was 0.445; in test [1] (first compound 0.5 µM) it was 0.297; in test [2] (first compound 0.05 µM), 0.589. Moreover, the relative viability came out at 0.532 in test [2] (first compound 0.1581 µM); 0.455 in test [2] (first compound 0.5 µM); 0.506 in test [2] (first compound 1.581 µM); 0.452 in test [2] (first compound 5 µM); 0.405 in test [3] (first compound 0.05 µM); 0.412 in test [3] (first compound 0.1581 µM). In addition, the relative viability in test [3] (first compound 0.5 µM) amounted to 0.4; in test [3] (first compound 1.581 µM), 0.404; in test [3] (first compound 5 µM), 0.42; in test [4] (first compound 0.08 µM) it was 0.391; in test [4] (first compound 0.253 µM) it was 0.333; in test [4] (first compound 0.8 µM), 0.41. Moreover, the relative viability came out at 0.421 in test [4] (first compound 2.53 µM) and 0.423 in test [4] (first compound 8 µM).
